Data taken from article PMC9021288 (Nature Communications, 2022).
Where “and” joins values, the source holds several entries; their conditions need not be identical. Identical values can stand only once. Like-named read-outs stand apart in the source and are kept apart here.

Key:
[1] = in vitro; details: human
[2] = mouse, plasma
[3] = rat, plasma
[4] = dog, plasma
[5] = human, plasma
[6] = tested on: P. falciparum NF54 rings and schizonts; test: Stage-specific activity on synchronized ring and schizont cultures; format: cell-based, Plasmodium falciparum
Method: Asynchronous NF54 parasites were cultured in a semi-automated shaker system[63] and synchronized once with 5% D-sorbitol. […] This yielded a parasite culture with ≥ 90% rings. To assess the schizont-stage activity of MMV693186, the initial synchronized culture was treated again with sorbitol 7 h later. Subsequently, parasites were cultured for another 17 h to yield a parasite culture of ≥ 90% early schizont stages. The ring and schizont synchronized cultures were diluted to 0.5% and then incubated with either 50 nM DHA or 50 nM MM693183 for 24 h in duplicate. Subsequently, the drug was washed out and parasites were cultured for another 24 h. Parasitemia was determined using Giemsa-stained thin smears at 0 h, 24 h, and 48 h after drug exposure.

[7] = tested on: AcAS (PF3D7_0627800); test: Cellular thermal shift assay on parasite lysate; format: binding, Plasmodium falciparum; details: 1 µM
Method: A cellular thermal shift assay (CETSA) was performed on infected RBCs or parasite lysates as described previously.
For a CETSA on parasite lysates, synchronized trophozoite cultures (ACS11-tagged parasites) were treated with 0.1% saponin to lyse the RBCs, and washed three times in PBS. Subsequently, parasite pellets were resuspended in 1× lysis buffer and subjected to three flash-freeze-thaw cycles using liquid nitrogen, followed by mechanical shearing using a syringe with a 25 G and a 30 G needle. Samples were spun down at 18,000 g for 20 min at 4 °C. The supernatant was diluted to 2.1 mg/ml protein concentration, and 100 µl was added to each PCR tube containing 1 µl of the compound at a 100× concentration (final concentration of 1 µM). Samples were incubated for 30 min at room temperature, subjected to a thermal gradient for 3 min on a pre-heated PCR machine, followed by 4 °C for 3 min. Samples were spun down at 18,000 g for 20 min at 4 °C and the soluble fraction was flash-frozen in liquid nitrogen and stored at −80 °C.
Samples were loaded on an 8% SDS-Page gel (Genscript) with 4×10^6 infected RBCs or 50 µg protein for the parasite lysate approach. Proteins were transferred to a nitrocellulose membrane that was blocked with 5% skim milk (Sigma) in PBS overnight and incubated with rabbit antiserum against AcAS (1:1000) for 1 h. Subsequently, membranes were washed three times with PBS-Tween for 5 min, followed by incubation with secondary horseradish peroxide (HRP)-conjugated goat anti-rabbit antibodies (Dako P0448, 1:1000) for 1 h. Blots were then washed three times with PBS-Tween for 5 min and twice with PBS. Following a 5-min incubation with Clarity Max Western ECL Substrate (BioRad), protein blots were imaged using the ImageQuant LAS4000 (GE Healthcare). The band intensity was quantified using Fiji software.

[8] = mouse
[9] = rat
[10] = human
[11] = Solubility in PBS, FaSSIF, FeSSIF; format: physicochemical; details: unknown samples, relative dilution factor 10000, duplicates

NC(=O)N1c2ccccc2C=Cc2ccccc21 [Carbamazepine] gave a Papp A→B at 9000 Sec, 2 µM ([1]; Caco-2, pH 7.4) of 25 ×10⁻⁶ cm/s, a Papp B→A at 9000 Sec, 2 µM ([1]; Caco-2, pH 7.4) of 28.9 ×10⁻⁶ cm/s and an efflux ratio at 9000 Sec, 2 µM ([1]; Caco-2, pH 7.4) of 1.2. The Papp at 9000 Sec, 2 µM ([1]; Caco-2, pH 7.4, Papp AVG) was 25 ×10⁻⁶ cm/s and the Papp at 9000 Sec, 2 µM ([1]; Caco-2, pH 7.4, Papp n=1, 2) was 24.3 ×10⁻⁶ cm/s.

With C[C@@H](CNC(=O)[C@H](O)C(C)(C)CO)NC(=O)c1cc(F)c(F)cc1F [MMV693183-03] the “% Bound Avg” value [2] was 33.4%, the “% Bound n=1” value [2] was 32.91% and the “% Bound n=2” value [2] was 33.90%. For the same compound, the “% Free n=1” value [2] was 67.09%, the “% Free n=2” value [2] was 66.10% and the “% Bound Avg” value [3] was 39.9%. The “% Bound n=1” value [3] was 39.84%, the “% Bound n=2” value [3] was 39.89% and the “% Free n=1” value [3] was 60.16%. For the same compound, the “% Free n=2” value [3] was 60.11%, the “% Bound Avg” value [4] was 41.3% and the “% Bound n=1” value [4] was 42.38%. For the same compound, the “% Bound n=2” value [4] was 40.31%, the “% Free n=1” value [4] was 57.62% and the “% Free n=2” value [4] was 59.69%. The “% Bound Avg” value [5] was 51.9%, the “% Bound n=1” value [5] was 52.54% and the “% Bound n=2” value [5] was 51.24%. For the same compound, the “% Free n=1” value [5] was 47.46% and the “% Free n=2” value [5] was 48.76%.

In the case of C[C@H]1[C@@H](O)O[C@@H]2O[C@@]3(C)CC[C@H]4[C@H](C)CC[C@@H]1[C@@]24OO3 [DHA, dihydroartemisinin], the “Parasitemia, rings culture” value ([6]; Time (h) 0) is reported as 0.4, the “Parasitemia, rings culture” value ([6]; Time (h) 24) is reported as 0 and the “Parasitemia, rings culture” value ([6]; Time (h) 48) is reported as 0. For the same compound, the “Parasitemia, schizonts culture” value ([6]; Time (h) 0) was 0.2, the “Parasitemia, schizonts culture” value ([6]; Time (h) 24) was 0 and the “Parasitemia, schizonts culture” value ([6]; Time (h) 48) was 0. For the same compound, the “AcAS band intensity normalized to DMSO at 37 °C” value (“AcAS band intensity normalized” for short) ([7]; 37 °C) was 142.951, the “AcAS band intensity normalized” value ([7]; 42 °C) was 180.287 and the “AcAS band intensity normalized” value ([7]; 47 °C) was 80.1639. The “AcAS band intensity normalized” value ([7]; 52 °C) was 24.4159.

In the case of C[C@@H](CNC(=O)[C@H](O)C(C)(C)CO)NC(=O)c1cc(F)c(F)cc1F [MMV693183-08], the “Blood to Plasma ratio Avg(n=2)” value [8] is reported as 0.98, the “Blood to Plasma ratio Avg(n=2)” value [9] is reported as 0.91 and the “Blood to Plasma ratio Avg(n=2)” value [10] is reported as 0.97.

With C[C@@H](CNC(=O)[C@H](O)C(C)(C)CO)NC(=O)c1cc(F)c(F)cc1F [MMV693183-06] the “Calculated concentration (solubility sample)” value (shortened to “Calculated concentration”) ([11]; FaSSIF) was 9179.95 ppm and 9316.55 ppm, the “Calculated concentration” value ([11]; FeSSIF) was 9110.79 ppm and 8990.98 ppm and the “Calculated concentration” value ([11]; PBS) was 6813.58 ppm and 7461.45 ppm.
